Common to all, as to assay type: in vivo
For one assay, the system named is corn (Zea mays). The assay can be described thus: General postemergence herbicidal activity, corn. As to conditions: post-emergence, 336 h, read-out: ZEAMX % Visual Injury; for plant injury at 140 g/ha: 140 g ai/ha; for plant injury at 17.5 g/ha: 17.5 g ai/ha. The method, boiled down:
(§1)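 Greenhouse plants at first to second true leaf stage sprayed overhead at 187 L/ha in acetone/DMSO with crop oil concentrate and surfactant, at a high rate plus ½× to 1/16× serial dilutions. Injury rated visually after 14 d against solvent-blank controls, 0 (none) to 100% (complete kill).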

Assay [1] concerns velvetleaf (Abutilon theophrasti). The assay can be described thus: General postemergence herbicidal activity, velvetleaf. The settings on record: post-emergence, 336 h, read-out: ABUTH % Visual Injury; for pest or weed control at 140 g/ha: 140 g ai/ha; for pest or weed control at 17.5 g/ha: 17.5 g ai/ha. In a few lines:
as §1

The subject of assay [2] is lambsquarters (Chenopodium album). Kind of assay: General postemergence herbicidal activity, lambsquarters. The settings on record: post-emergence, 336 h, read-out: CHEAL % Visual Injury; for pest or weed control at 140 g/ha: 140 g ai/ha; for pest or weed control at 17.5 g/ha: 17.5 g ai/ha. In a few lines:
as §1

For assay [3], the system named is wild buckwheat (Polygonum convululus). Kind of assay: General postemergence herbicidal activity, wild buckwheat. The settings on record: post-emergence, 336 h, read-out: POLCO % Visual Injury; for pest or weed control at 140 g/ha: 140 g ai/ha; for pest or weed control at 17.5 g/ha: 17.5 g ai/ha. The method, boiled down:
as §1

The subject of assay [4] is sugar beet (Beta vulgaris). Kind of assay: Postemergence herbicidal activity in sugar beet, crop. Set-up: unit not given here. The settings on record: visual rating after 21 d, probit analysis, dose to kill or control 20 percent. As for the experimental part:
(§2) Seeds of sugar beet and the desired weed species were planted in Sun Gro MetroMix® 360 planting mixture, which typically has a pH of 6.0 to 6.8 and an organic matter content of about 30 percent, in plastic pots with a surface area of 95 cm^2. When required to ensure good germination and healthy plants, a fungicide treatment and/or other chemical or physical treatment was applied. The plants were grown for 15-28 d in a greenhouse with an approximate 15-h photoperiod which was maintained at about 23-29° C. during the day and 22-28° C. during the night. Nutrients and water were added on a regular basis and supplemental lighting was provided with overhead metal halide 1000-Watt lamps as necessary. The sugar beet plants were utilized for testing when they reached the third or fourth true leaf stage. The weed species were utilized at the fourth true leaf stage.
(§3) A weighed amount, determined by the highest rate to be tested, of each test compound was dissolved in 4 mL of a 97:3 v/v mixture of acetone and DMSO to obtain concentrated stock solutions. […] The concentrated stock solutions obtained were diluted with 20 mL of an aqueous mixture containing acetone, water and Agri-Dex crop oil concentrate, in a 16.7:82.1:1.25 v/v ratio to obtain spray solutions containing the highest application rates. Additional application rates were obtained by serial dilution of 12 mL of the high rate solution into a solution containing 2 mL of 97:3 v/v mixture of acetone and DMSO and 10 mL of an aqueous mixture containing acetone, water and Agri-Dex crop oil concentrate, in a 16.7:82.1:1.25 v/v ratio to obtain ½×, ¼×, ⅛× and 1/16× rates of the high rate. Compound requirements are based upon a 12 mL application volume at a rate of 187 L/ha. Formulated compounds were applied to the plant material with an overhead Mandel track sprayer equipped with 8002E nozzles calibrated to deliver 187 L/ha over an application area of 0.503 m^2 at a spray height of 18 inches (43 cm) above the average plant canopy height. Control plants were sprayed in the same manner with the solvent blank.
(§4) The treated plants and control plants were placed in a greenhouse as described above and watered by sub-irrigation to prevent wash-off of the test compounds. After 21 d, the condition of the test plants as compared with that of the untreated plants was determined visually and scored on a scale of 0 to 100 percent where 0 corresponds to no injury and 100 corresponds to complete kill.
(§5) By applying the well-accepted probit analysis as described by J. Berkson in Journal of the American Statistical Society 1953, 48, 565, and by D. Finney in “Probit Analysis” Cambridge University Press (1952), the above data can be used to calculate GR20 and GR80 values, which are defined as growth reduction factors that correspond to the effective dose of herbicide required to kill or control 20 percent or 80 percent, respectively, of a target plant.

The subject of assay [5] is lambsquarters (Chenopodium album). The assay can be described thus: Postemergence herbicidal activity in sugar beet, lambsquarters. Set-up: unit not given here. As to conditions: sugar beet test, visual rating after 21 d, probit analysis, dose to kill or control 80 percent. As for the experimental part: as §2, §3, §4, §5
Assay [6] relates to purple deadnettle (Lamium purpureum). Kind of assay: Postemergence herbicidal activity in sugar beet, purple deadnettle. Also on record: unit not given here. The settings on record: sugar beet test, visual rating after 21 d, probit analysis, dose to kill or control 80 percent. As for the experimental part:
as §2, §3
The treated plants and control plants were placed in a greenhouse as described above and watered by sub-irrigation to prevent wash-off of the test compounds. After 21 d, the condition of the test plants as compared with that of the untreated plants was determined visually and scored on a scale of 0 to 100 percent where 0 corresponds to no injury and 100 corresponds to complete kill. […]

Assay [7] concerns winter oilseed rape (canola) (Brassica napus). Kind of assay: Postemergence herbicidal activity in oilseed rape (canola), crop. Set-up: unit not given here. As to conditions: visual rating after 21 d, probit analysis, dose to kill or control 20 percent. As to the method: as §2, with “oilseed rape (canola)” for “sugar beet”
as §3, §4, §5

For assay [8], the system named is lambsquarters (Chenopodium album). Kind of assay: Postemergence herbicidal activity in oilseed rape (canola), lambsquarters. Also on record: unit: g ai/ha. The settings on record: oilseed rape (canola) test, visual rating after 21 d, probit analysis, dose to kill or control 80 percent. As for the experimental part: as §2, with “oilseed rape (canola)” for “sugar beet”
as §3, §4, §5

In assay [9] the test system is purple deadnettle (Lamium purpureum). Kind of assay: Postemergence herbicidal activity in oilseed rape (canola), purple deadnettle. Also on record: unit not given here. The settings on record: oilseed rape (canola) test, visual rating after 21 d, probit analysis, dose to kill or control 80 percent. As for the experimental part:
as §2, with “oilseed rape (canola)” for “sugar beet”
as §3, §4, §5

Where [10] appears, read: postemergence, after 14 d, 0 = no injury, 100 = complete kill.
The mark [11] stands for this setting: 70 g ai/ha, postemergence, after 14 d, 0 = no injury, 100 = complete kill.
Where [12] appears, read: 280 g ai/ha, postemergence, after 14 d, 0 = no injury, 100 = complete kill.

Where two headings read alike, the source gives them in different places.

With `CCONC(=O)c1nc(-c2ccc(Cl)c(OC)c2F)cc(N)c1Cl` [Compound 4, 4-Amino-3-chloro-6-(4-chloro-2-fluoro-3-methoxyphenyl)-N-ethoxypicolinamide], the plant injury at 140 g/ha with corn (Zea mays) (setting [10]) is 0%. In addition, the pest or weed control at 140 g/ha in assay [1] (setting [10]), in assay [2] (setting [10]) and in assay [3] (setting [10]) was 100% throughout. The “BEAVA GR20” value in assay [4] is recorded as >140. Moreover, the “CHEAL GR80” value is <8.75 in [5] and 11 in assay [8]. For the same compound, the “LAMPU GR80” value in assay [6] and in assay [9] was <4.38 throughout. The “BRSNW GR20” value in assay [7] was >140.

Turning to `C/C=C/CONC(=O)c1nc(-c2ccc(Cl)c(OC)c2F)cc(N)c1Cl` [Compound 30, (E)-4-Amino-N-(2-butenyloxy)-3-chloro-6-(4-chloro-2-fluoro-3-methoxy-phenyl)picolinamide], the plant injury at 70 g/ha with corn (Zea mays) (setting [11]) came out at 50%. Also, the pest or weed control at 70 g/ha in assay [1] (setting [11]), in assay [2] (setting [11]) and in [3] (setting [11]) was 100% throughout. Further, in assay [4], the “BEAVA GR20” value is given as >140. Moreover, the “CHEAL GR80” value in [5] and in assay [8] was <8.75 throughout. The “LAMPU GR80” value in [6] and in assay [9] was <4.38 each time. In addition, the “BRSNW GR20” value in assay [7] is reported as >70.

As to `COc1c(Cl)ccc(-c2cc(N)c(Cl)c(C(=O)NOC/C=C/Cl)n2)c1F` [Compound 31, (E)-4-Amino-3-chloro-6-(4-chloro-2-fluoro-3-methoxyphenyl)-N-(3-chloro-2-propenyl-oxy)picolinamide], in the assay with corn (Zea mays) (setting [11]), the plant injury at 70 g/ha amounted to 5%. Besides, the pest or weed control at 70 g/ha in [1] (setting [11]), in assay [2] (setting [11]) and in assay [3] (setting [11]) was 100% throughout. The “BEAVA GR20” value in [4] is reported as >140. The “CHEAL GR80” value in assay [5] was <8.75.

For the compound `C=CCONC(=O)c1nc(-c2ccc(Cl)c(OC)c2F)c(F)c(N)c1Cl` [Compound 39, N-(2-Propenyloxy)-4-amino-3-chloro-6-(4-chloro-2-fluoro-3-methoxyphenyl)-5-fluoropicolinamide], the plant injury at 17.5 g/ha in the assay with corn (Zea mays) (setting [10]) came to 45%. Also, the pest or weed control at 17.5 g/ha in assay [1] (setting [10]), in assay [2] (setting [10]) and in assay [3] (setting [10]) was 100% in each case. For the same compound, in [7], the “BRSNW GR20” value is >70. Besides, the “CHEAL GR80” value in [8] amounted to 49. Moreover, in [9], the “LAMPU GR80” value is <8.75.

On to `COc1c(Cl)ccc(-c2cc(N)c(Cl)c(C(=O)NOCc3cnc(Cl)s3)n2)c1F` [Compound 41, 4-Amino-3-chloro-6-(4-chloro-2-fluoro-3-methoxyphenyl)-N-((2-chlorothiazol-5-yl)-methoxy)picolinamide], for which, in the assay on corn (Zea mays) (setting [11]), the plant injury at 70 g/ha came to 5%. For the same compound, the pest or weed control at 70 g/ha in assay [1] (setting [11]), in [2] (setting [11]) and in [3] (setting [11]) was 100% each time. Further, the “BEAVA GR20” value in [4] was 136. Besides, the “CHEAL GR80” value in assay [5] is reported as 30. In [6], the “LAMPU GR80” value was <4.38.

With `COc1c(Cl)ccc(-c2nc(C(=O)NOC3CCCCO3)c(Cl)c(N)c2F)c1F` (centres unmarked) [Compound 48, 4-Amino-3-chloro-6-(4-chloro-2-fluoro-3-methoxyphenyl)-5-fluoro-N-(tetrahydro-2H-pyran-2-yloxy)picolinamide], in the assay with corn (Zea mays) (setting [10]), the plant injury at 140 g/ha was determined as 0%. Besides, the pest or weed control at 140 g/ha in assay [1] (setting [10]), in assay [2] (setting [10]) and in assay [3] (setting [10]) was 100% throughout. In addition, the “BRSNW GR20” value in [7] is >70. Also, the “CHEAL GR80” value in assay [8] worked out at 18. Moreover, the “LAMPU GR80” value in assay [9] was <4.38.

Turning to `COc1c(Cl)ccc(-c2cc(N)c(Cl)c(C(=O)NO)n2)c1F` [Compound 57, 4-amino-3-chloro-6-(4-chloro-2-fluoro-3-methoxyphenyl)-N-hydroxypicolinamide], the plant injury at 17.5 g/ha with corn (Zea mays) (setting [10]) was determined as 0%. Moreover, the pest or weed control at 17.5 g/ha is 90% in assay [1] (setting [10]), 95% in assay [2] (setting [10]) and 95% in [3] (setting [10]).

In the case of `COc1c(N)nc(-c2ccc(Cl)c(F)c2F)nc1C(=O)NO` [Compound 58, 6-Amino-2-(4-chloro-2,3-difluorophenyl)-N-hydroxy-5-methoxypyrimidine-4-carboxamide], the plant injury at 280 g/ha in the assay with corn (Zea mays) (setting [12]) stood at 0%. Further, the results for the pest or weed control at 280 g/ha in assay [1] (setting [12]), in assay [2] (setting [12]) and in [3] (setting [12]) were 90%, 100% and 100%, respectively.

In the case of `C=CCONC(=O)c1nc(-c2ccc(Cl)c(OC)c2F)cc(N)c1Cl` [Compound 59, sodium 2-propenyloxy(4-amino-3-chloro-6-(4-chloro-2-fluoro-3-methoxyphenyl)picolinoyl)amide], the plant injury at 70 g/ha with corn (Zea mays) amounted to 10%. The figures for the pest or weed control at 70 g/ha in assay [1], in assay [2] and in [3] were 100%, 95% and 85%, respectively.

The record behind these values is patent publication US20130324412A1, “N-ALKOXYAMIDES OF 6-(SUBSTITUTED PHENYL)-4-AMINOPICOLINATES AND 2-(SUBSTITUTED PHENYL)-6-AMINO-4-PYRIMIDINECARBOXYLATES AND THEIR USE AS SELECTIVE HERBICIDES FOR CROPS” (DOW AGROSCIENCES LLC, priority 2009, published 2013).
